The values that follow are results of earlier work, collected in patent US8889636B2, “Anti-microbial compositions” (Biotelliga Holdings Limited, priority 2010, dated 2014).

A word on the MIC: it is the lowest concentration found to suppress growth.

The test system of series [1] is Candidia albacans. The conditions noted are these: modest antifungal activity.
Series [2] has as its system HIV-1 regulatory protein and its viral RNA binding site.

Converted amounts (≈) assume the structure as drawn.

In the case of `CCC(C)CC(C)/C=C(/C=C(C)/C=C/C=C/C=C/C=C/C=C/c1cc2c(c(=O)o1)[C@H](O)[C@@H](O)[C@H](C(O)C(O)CO)O2)C(=O)O` (some centres unmarked) [Orevactaene], in series [1], the MIC is 250 µg/mL (≈ 408 µM). Besides, the “Inhibition of binding of HIV-1 regulatory protein and its viral RNA binding site” value in series [2] is listed as “found to inhibit binding”.
